We go through one compound from publication PMC11768370, “Etodolac Single Dose Metabolic Profile Elucidation: Pharmacokinetics and Adverse Events in Healthy Volunteers” (Pharmaceuticals, 2025).

This series can be described thus: Etodolac pharmacokinetic profile after a single dose, plasma LC-MS/MS, non-compartmental. The format is in vivo, human. The protocol:
The analytical method used to calculate the pharmacokinetic parameters was validated according to Resolution No. 27/2012 of the Agência Nacional de Vigilância Sanitária (ANVISA). In this study, an LC-MS/MS system was used to quantify ETO. Chromatographic separations were performed using an LC-20AD analytical pump (Shimadzu, Kyoto, Japan) and a SIL-20A HT autosampler (Shimadzu, Kyoto, Japan), coupled to a Quattro Micro (Micromass, Newcastle, UK) system for triple quadrupole mass spectrometry analyses with an electrospray ionization (ESI) source (Waters, Newcastle, UK). The targeted analysis for ETO was detected by a multiple reaction monitoring (MRM) transition of 286 > 242, and mefenamic acid (Internal Standard) was detected by an MRM transition of 240 > 196 in negative acquisition mode. Data were collected using MassLynx 4.1 (Waters, Newcastle, UK). Further information on the validation method can be found in Supplementary Materials and Methods. WinNonLin 8.3 software (Pharsight, New Jersey, USA) was used to calculate pharmacokinetic parameters using non-compartmental statistics. […]
Table S3. Pharmacokinetics parameters. Pharmacokinetics parameters were calculated for each participant using the concentration across time data. […]
1. Volunteers and Study Design
The present study was nested in a single-dose, open-label, randomized pharmaco-bioequivalence study performed under biosafety and ethical standards. The reference formulation was an etodolac controlled-release coated tablet of 500 mg Flancox® with the administration of one single-dose tablet.
The volunteers were hospitalized at 7:00 p.m. and had supper before 9:00 p.m. After an overnight fast, a speciﬁc high-calorie diet was administered 30 minutes before taking the medication. They received (at ∼7:00 a.m.) a tablet of 500 mg of etodolac with 200 mL of water. Lunch: 4 hours after taking the medication. Afternoon snack: 8 hours after taking the medication. Dinner: 10 hours after […]
At 2 h before and 6, 8, and 12 h after the dose administration, vital signs were checked. The […] period was 24 h, during which period, blood samples (5 mL) from a suitable antecubital vein were collected, post-dosing via an indwelling catheter, into ethylenediaminetetraacetic acid […]
for 10 min at 4°C, and the plasma was stored at -70°C until assayed. Samples were handled under yellow light due to the photosensitivity of the drug.
2. Determination of Pharmacokinetic Proﬁle by LC-MS/MS
Chromatographic separations were performed in an LC-20AD analytical pump and SIL-20A HT autosampler from Shimadzu. The stationary phase employed an Agilent Polaris 5 µm C18-A 50 x […]
2,0mm column (Phenomenex). The mobile phase consisted of a solution of acetonitrile and 5 mM ammonium acetate, ﬂowing at 0.3 mL/min in proportion (8:2). The autosampler was maintained at 22°C, with an injection volume of 5 µl and 2.5-minute duration. Mass spectrometry was conducted on a Quattro Micro mass spectrometer from Micromass, equipped with an electrospray ionization (ESI) source. While operating in negative ionization mode with nitrogen as the desolvation gas, ESI source parameters were set as follows: source temperature of 100°C, desolvation temperature of 450°C, desolvation ﬂow of 800 L h-1, and capillary voltage of 3,50 kV. Etodolac was detected by a multiple reaction monitoring (MRM) transition of 286 > 242 using a cone voltage of 30 eV, and mefenamic acid was detected by an MRM transition of 240 > 196 using a cone voltage of 30 eV. Data was acquired using MassLynx 4.1.
2.1. Preparation of Standards and Quality Controls
Etodolac stock solution (108.5 µg/mL) was prepared in methanol and diluted with H2O to obtain the corrected stock solution (100 µg/mL) for the spiking calibration curve and quality controls (QC) samples. QC samples were prepared in the following levels: low, 0,6 µg/mL (LQC); medium, 50 µg/mL (MQC); high, 75 ug/mL (HQC); and a dilution, 42.5 µg/mL (DQC), calculated by taking the […]

The mark [1] stands for this setting: Maximum of 37 participants, single dose 500 mg.
Setting [2] is: Minimum of 37 participants, single dose 500 mg.
Setting [3] is: individual participants P1-P37, single dose 500 mg.

Values joined by “and” are separate entries in the source; they are usually repeats but may differ in a detail not shown here. Equal entries are not always repeated. Where two headings read alike, the source gives them in different places.

`CCc1cccc2c3c([nH]c12)C(CC)(CC(=O)O)OCC3` (stereo not shown) [Etodolac]: the AUC0-t under setting [1] turned out to be 480.52 µg·h/mL; the AUC0-t under setting [2] was found to be 94.14 µg·h/mL; the AUC0-t (both sexes, human, oral, 500 mg, Mean of 37 participants, single dose 500 mg, read-out: AUC0-t) stood at 203 µg·h/mL; the AUC0-t (both sexes, human, oral, overall mean (SD), 37 healthy volunteers, single dose Flancox 500 mg tablet after high-calorie diet, read-out: area under the curve from time zero to time t (AUC0-t)) was 203 µg·h/mL. In addition, the Cmax runs as follows: under setting [1], 59070 ng/mL; under setting [2], 18690 ng/mL; (both sexes, human, oral, 500 mg, Mean of 37 participants, single dose 500 mg, read-out: Cmax) 35500 ng/mL; (both sexes, human, oral, 500 mg, overall mean (SD), 37 healthy volunteers, single dose Flancox 500 mg tablet after high-calorie diet, read-out: maximum concentration (Cmax)) 35500 ng/mL; under setting [3], 45680 ng/mL. In addition, the Kel under setting [1] was found to be 0.15 h⁻¹ and the Kel under setting [2] was 0.035 h⁻¹. Also, the T1/2 under setting [1] amounted to 20.09 h and the T1/2 under setting [2] was 4.76 h. Also, the Tmax is 5.00 h under setting [1]; 0.75 h under setting [2]; 2.24 h (both sexes, human, oral, 500 mg, Mean of 37 participants, single dose 500 mg, read-out: Tmax); 2.24 h (both sexes, human, oral, 500 mg, overall mean (SD), 37 healthy volunteers, single dose Flancox 500 mg tablet after high-calorie diet, read-out: time to maximum concentration (Tmax)); 2.25 h and 2.75 h and 1.50 h and 3.00 h and 1.25 h and 3.67 h and 4.00 h and 3.33 h and 2.50 h and 1.00 h and 2.00 h and 1.75 h and 5.00 h and 0.75 h under setting [3]. In addition, the k el runs as follows: (both sexes, human, oral, 500 mg, Mean of 37 participants, single dose 500 mg, read-out: Kel (converted)) 2.5e-05 s⁻¹; (both sexes, human, oral, 500 mg, overall mean (SD), 37 healthy volunteers, single dose Flancox 500 mg tablet after high-calorie diet, read-out: elimination rate constant (Kel) (converted)) 2.5e-05 s⁻¹. Further, the half-life by setting is: (both sexes, human, oral, 500 mg, Mean of 37 participants, single dose 500 mg, read-out: T1/2 (converted)) 8.2 h; (both sexes, human, oral, 500 mg, overall mean (SD), 37 healthy volunteers, single dose Flancox 500 mg tablet after high-calorie diet, read-out: half-life (T1/2) (converted)) 8.2 h.
